Key:
Gram negative bacteria = test: antibacterial effect against Gram negative bacteria; type: cell-based
Excerpt: (§1) The antimicrobial spectrum (minimum inhibitory concentration, MIC) of G-367-1 by agar dilution method is as follows: […]

[1] = test system: Bacillus subtilis ATCC 6633; test: antimicrobial spectrum, MIC by agar dilution method; type: cell-based; conditions: ATCC6633, read-out: minimum inhibitory concentration, MIC
Excerpt: as §1

[2] = test system: Pseudomonas maltophilia 1850; test: as above; type: cell-based; conditions: Stenotrophomonas maltophilia, read-out: minimum inhibitory concentration, MIC
Excerpt: as §1

[3] = test system: Enterobacter aerogenes 0655; test: as above; type: cell-based; conditions: Klebsiella aerogenes, read-out: minimum inhibitory concentration, MIC
Excerpt: as §1

[4] = test system: Citrobacter freundii GN346; test: as above; type: cell-based; conditions: read-out: minimum inhibitory concentration, MIC
Excerpt: as §1

[5] = test system: Pseudomonas aeruginosa ML4561; test: as above; type: cell-based; conditions: read-out: minimum inhibitory concentration, MIC
Excerpt: as §1

[6] = test system: Pseudomonas aeruginosa ML4561 Rms166; test: as above; type: cell-based; conditions: ML4561RMS166, read-out: minimum inhibitory concentration, MIC
Excerpt: as §1

[7] = test system: Staphylococcus epidermidis sp-al-1; test: as above; type: cell-based; conditions: SPAL1, read-out: minimum inhibitory concentration, MIC
Excerpt: as §1

[8] = test system: Pseudomonas aeruginosa 2512; test: as above; type: cell-based; conditions: read-out: minimum inhibitory concentration, MIC
Excerpt: as §1

Proteus rettgeri ACR = test: as above; type: cell-based; conditions: Providencia rettgeri, read-out: minimum inhibitory concentration, MIC
Excerpt: as §1

[9] = test system: Enterobacter cloacae GN366; test: as above; type: cell-based; conditions: read-out: minimum inhibitory concentration, MIC
Excerpt: as §1

[10] = test system: Staphylococcus aureus MS 27; test: as above; type: cell-based; conditions: MS27, read-out: minimum inhibitory concentration, MIC
Excerpt: as §1

[11] = test system: Pseudomonas aeruginosa IAM1095; test: as above; type: cell-based; conditions: read-out: minimum inhibitory concentration, MIC
Excerpt: as §1

[12] = test system: Streptococcus pyogenes N.Y.5; test: as above; type: cell-based; conditions: read-out: minimum inhibitory concentration, MIC
Excerpt: as §1

[13] = test system: Pseudomonas aeruginosa ML4561 RP4; test: as above; type: cell-based; conditions: ML4561RP4, read-out: minimum inhibitory concentration, MIC
Excerpt: as §1

Shigella sonnei E33 = test: as above; type: cell-based; conditions: read-out: minimum inhibitory concentration, MIC
Excerpt: as §1

[14] = test system: Escherichia coli NIHJ-JC2; test: as above; type: cell-based; conditions: NIHJJC2, read-out: minimum inhibitory concentration, MIC
Excerpt: as §1

[15] = test system: Klebsiella pneunonia ATCC 10031; test: as above; type: cell-based; conditions: ATCC10031, read-out: minimum inhibitory concentration, MIC
Excerpt: as §1

[16] = test system: Staphylococcus aureus ATCC 6538P; test: as above; type: cell-based; conditions: ATCC6538P, read-out: minimum inhibitory concentration, MIC
Excerpt: as §1

[17] = test system: Pseudomonas aeruginosa 1946; test: as above; type: cell-based; conditions: read-out: minimum inhibitory concentration, MIC
Excerpt: as §1

Serratia marcescens = test: as above; type: cell-based; conditions: read-out: minimum inhibitory concentration, MIC
Excerpt: as §1

Proteus morganii 0239 = test: as above; type: cell-based; conditions: Morganella morganii, read-out: minimum inhibitory concentration, MIC
Excerpt: as §1

Pseudomonas putida 1842 = test: as above; type: cell-based; conditions: read-out: minimum inhibitory concentration, MIC
Excerpt: as §1

Escheria coli W3630 = test: as above; type: cell-based; conditions: read-out: minimum inhibitory concentration, MIC
Excerpt: as §1

[18] = test system: Salmonella enteritidis Gartner; test: as above; type: cell-based; conditions: Salmonella enterica, read-out: minimum inhibitory concentration, MIC
Excerpt: as §1

[19] = test system: Pseudomonas aeruginosa ML4561 Rms164-1; test: as above; type: cell-based; conditions: ML4561RMS1641, read-out: minimum inhibitory concentration, MIC
Excerpt: as §1

[20] = test system: Staphylococcus aureus 0119; test: as above; type: cell-based; conditions: read-out: minimum inhibitory concentration, MIC
Excerpt: as §1

Solubility = type: physicochemical

CNC1C(O)C(OC2C(N)CC(N)C(OC3OC(CN)=CCC3NC=O)C2O)OCC1(C)O (stereo not drawn) [G-367-1]
50 µg/mL: MIC [19]
0.8 µg/mL: MIC [1]
strong antibacterial effect: antibacterial effect (Gram negative bacteria)
insoluble: Solubility (Solubility; acetone) | Solubility (Solubility; benzene) | Solubility (Solubility; chloroform) | Solubility (Solubility; ethyl acetate)
1.6 µg/mL: MIC [3] | MIC [4] | MIC [7] | MIC [9] | MIC (Shigella sonnei E33) | MIC [14] | MIC [15] | MIC (Escheria coli W3630) | MIC [18]
3.1 µg/mL: MIC (Proteus rettgeri ACR) | MIC (Proteus morganii 0239)
> 100 µg/mL: MIC [2] | MIC [6] | MIC [8] | MIC [17] | MIC (Pseudomonas putida 1842)
soluble: Solubility (Solubility; methanol) | Solubility (Solubility; water)
12.5 µg/mL: MIC [13] | MIC [20]
6.3 µg/mL: MIC [10] | MIC [12] | MIC [16]
25 µg/mL: MIC [5] | MIC [11] | MIC (Serratia marcescens)

Source: US4297486A, “Aminoglycoside antibiotic G-367-1 and method for the production thereof” (Toyo Jozo Kabushiki Kaisha, priority 1979, dated 1981)
